Assay results as given in PubChem BioAssay AID1259407 (Chemical Carcinogenesis Research Information System (CCRIS), 2018).
Calls of active or inactive are those of the source. No rule for the calls is given here.

System: CCRIS mutagenicity, Ames/micronucleus/aberration tests
Assay: CCRIS mutagenicity studies
[1] = Test System: AMES SALMONELLA TYPHIMURIUM, Strain/Indicator: TA98, Metabolic Activation: NONE, Method: PREINCUBATION
[2] = Test System: AMES SALMONELLA TYPHIMURIUM, Strain/Indicator: TA100, Metabolic Activation: NONE, Method: PREINCUBATION
[3] = Test System: AMES SALMONELLA TYPHIMURIUM, Strain/Indicator: TA98, Metabolic Activation: NONE, Method: STANDARD PLATE
[4] = Test System: AMES SALMONELLA TYPHIMURIUM, Strain/Indicator: TA100, Metabolic Activation: NONE, Method: STANDARD PLATE

For `CN1CCC(CN2c3ccccc3Sc3ccccc32)C1` (stereo not drawn), the mutagenic call (End Point: IN VITRO CHROMOSOMAL ABERRATIONS, Test System: CHINESE HAMSTER OVARY CELLS, Metabolic Activation: NONE) was “inactive; negative”, the mutagenic call (End Point: IN VITRO CHROMOSOMAL ABERRATIONS, Test System: CHINESE HAMSTER OVARY CELLS, Metabolic Activation: RAT, LIVER, S-9, AROCLOR 1254) was “inactive; negative” and the mutagenic call (Test System: AMES SALMONELLA TYPHIMURIUM, Strain/Indicator: TA97, Metabolic Activation: HAMSTER, LIVER, S-9, AROCLOR 1254 (10 OR 30%), Method: PREINCUBATION) was “inactive; negative”. The mutagenic call (Test System: AMES SALMONELLA TYPHIMURIUM, Strain/Indicator: TA97, Metabolic Activation: NONE, Method: PREINCUBATION) was “inactive; negative”, the mutagenic call (Test System: AMES SALMONELLA TYPHIMURIUM, Strain/Indicator: TA97, Metabolic Activation: RAT, LIVER, S-9, AROCLOR 1254 (10 OR 30%), Method: PREINCUBATION) was “inactive; negative” and the mutagenic call (Test System: AMES SALMONELLA TYPHIMURIUM, Strain/Indicator: TA98, Metabolic Activation: HAMSTER, LIVER, S-9, AROCLOR 1254 (10%), Method: PREINCUBATION) was “inactive; negative”. For the same molecule, the mutagenic call (Test System: AMES SALMONELLA TYPHIMURIUM, Strain/Indicator: TA98, Metabolic Activation: HAMSTER, LIVER, S-9, AROCLOR 1254 (30%), Method: PREINCUBATION) was “inactive; negative”, the mutagenic call [1] was “inactive; negative” and the mutagenic call (Test System: AMES SALMONELLA TYPHIMURIUM, Strain/Indicator: TA98, Metabolic Activation: RAT, LIVER, S-9, AROCLOR 1254 (10%), Method: PREINCUBATION) was “inactive; negative”. For the same molecule, the mutagenic call (Test System: AMES SALMONELLA TYPHIMURIUM, Strain/Indicator: TA98, Metabolic Activation: RAT, LIVER, S-9, AROCLOR 1254 (30%), Method: PREINCUBATION) was “inactive; negative”, the mutagenic call (Test System: AMES SALMONELLA TYPHIMURIUM, Strain/Indicator: TA100, Metabolic Activation: HAMSTER, LIVER, S-9, AROCLOR 1254 (10%), Method: PREINCUBATION) was “inactive; negative” and the mutagenic call (Test System: AMES SALMONELLA TYPHIMURIUM, Strain/Indicator: TA100, Metabolic Activation: HAMSTER, LIVER, S-9, AROCLOR 1254 (30%), Method: PREINCUBATION) was “inactive; negative”. The mutagenic call [2] was “inactive; negative”, the mutagenic call (Test System: AMES SALMONELLA TYPHIMURIUM, Strain/Indicator: TA100, Metabolic Activation: RAT, LIVER, S-9, AROCLOR 1254 (10%), Method: PREINCUBATION) was “inactive; negative” and the mutagenic call (Test System: AMES SALMONELLA TYPHIMURIUM, Strain/Indicator: TA100, Metabolic Activation: RAT, LIVER, S-9, AROCLOR 1254 (30%), Method: PREINCUBATION) was “inactive; negative”. For the same molecule, the mutagenic call (Test System: AMES SALMONELLA TYPHIMURIUM, Strain/Indicator: TA1535, Metabolic Activation: HAMSTER, LIVER, S-9, AROCLOR 1254 (10%), Method: PREINCUBATION) was “inactive; negative”, the mutagenic call (Test System: AMES SALMONELLA TYPHIMURIUM, Strain/Indicator: TA1535, Metabolic Activation: HAMSTER, LIVER, S-9, AROCLOR 1254 (30%), Method: PREINCUBATION) was “inactive; negative” and the mutagenic call (Test System: AMES SALMONELLA TYPHIMURIUM, Strain/Indicator: TA1535, Metabolic Activation: NONE, Method: PREINCUBATION) was “inactive; negative”. The mutagenic call (Test System: AMES SALMONELLA TYPHIMURIUM, Strain/Indicator: TA1535, Metabolic Activation: RAT, LIVER, S-9, AROCLOR 1254 (10%), Method: PREINCUBATION) was “inactive; negative”, the mutagenic call (Test System: AMES SALMONELLA TYPHIMURIUM, Strain/Indicator: TA1535, Metabolic Activation: RAT, LIVER, S-9, AROCLOR 1254 (30%), Method: PREINCUBATION) was “inactive; negative” and the mutagenic call (Test System: AMES SALMONELLA TYPHIMURIUM, Strain/Indicator: TA1537, Metabolic Activation: HAMSTER, LIVER, S-9, AROCLOR 1254 (10%), Method: PREINCUBATION) was “inactive; negative”. The mutagenic call (Test System: AMES SALMONELLA TYPHIMURIUM, Strain/Indicator: TA1537, Metabolic Activation: NONE, Method: PREINCUBATION) was “inactive; negative” and the mutagenic call (Test System: AMES SALMONELLA TYPHIMURIUM, Strain/Indicator: TA1537, Metabolic Activation: RAT, LIVER, S-9, AROCLOR 1254 (10%), Method: PREINCUBATION) was “inactive; negative”.
In the case of `Cc1cc2c(cc1N=O)OCO2`, the mutagenic call [2] is reported as “active; positive” and the mutagenic call (Test System: AMES SALMONELLA TYPHIMURIUM, Strain/Indicator: TA100, Metabolic Activation: RAT, LIVER, S-9, PHENOBARBITAL AND 5,6-BENZOFLAVONE, Method: PREINCUBATION) is reported as “active; positive”.
`O=C1CN=C(c2ccccc2)c2cc([N+](=O)[O-])ccc2N1` was tested, and the mutagenic call [3] was “inactive; negative”, the mutagenic call (Test System: AMES SALMONELLA TYPHIMURIUM, Strain/Indicator: TA98, Metabolic Activation: RAT, LIVER, S-9, AROCLOR 1254, Method: STANDARD PLATE) was “inactive; negative” and the mutagenic call [4] was “inactive; negative”. For the same molecule, the mutagenic call (Test System: AMES SALMONELLA TYPHIMURIUM, Strain/Indicator: TA100, Metabolic Activation: RAT, LIVER, S-9, AROCLOR 1254, Method: STANDARD PLATE) was “inactive; negative”, the mutagenic call (Test System: AMES SALMONELLA TYPHIMURIUM, Strain/Indicator: TA102, Metabolic Activation: NONE, Method: STANDARD PLATE) was “inactive; negative” and the mutagenic call (Test System: AMES SALMONELLA TYPHIMURIUM, Strain/Indicator: TA102, Metabolic Activation: RAT, LIVER, S-9, AROCLOR 1254, Method: STANDARD PLATE) was “inactive; negative”. For the same molecule, the mutagenic call (Test System: AMES SALMONELLA TYPHIMURIUM, Strain/Indicator: TA1535, Metabolic Activation: NONE, Method: STANDARD PLATE) was “inactive; negative”, the mutagenic call (Test System: AMES SALMONELLA TYPHIMURIUM, Strain/Indicator: TA1535, Metabolic Activation: RAT, LIVER, S-9, AROCLOR 1254, Method: STANDARD PLATE) was “inactive; negative” and the mutagenic call (Test System: AMES SALMONELLA TYPHIMURIUM, Strain/Indicator: TA1537, Metabolic Activation: NONE, Method: STANDARD PLATE) was “inactive; negative”. The mutagenic call (Test System: AMES SALMONELLA TYPHIMURIUM, Strain/Indicator: TA1537, Metabolic Activation: RAT, LIVER, S-9, AROCLOR 1254, Method: STANDARD PLATE) was “inactive; negative”, the mutagenic call (Test System: E. COLI, Strain/Indicator: WP2 UVRA, Metabolic Activation: NONE, Method: STANDARD PLATE) was “inactive; negative” and the mutagenic call (Test System: E. COLI, Strain/Indicator: WP2 UVRA, Metabolic Activation: RAT, LIVER, S-9, AROCLOR 1254, Method: STANDARD PLATE) was “inactive; negative”.
For `C[C@@H]1O[C@@H](O[C@H]2C[C@](O)(C(=O)CO)Cc3c(O)c4c(c(O)c32)C(=O)c2ccccc2C4=O)C[C@H](N)[C@@H]1O`, the mutagenic call (Test System: AMES SALMONELLA TYPHIMURIUM, Strain/Indicator: GW257, Metabolic Activation: NONE, Method: STANDARD PLATE) was “active; positive”, the mutagenic call (Test System: AMES SALMONELLA TYPHIMURIUM, Strain/Indicator: TA97, Metabolic Activation: NONE, Method: STANDARD PLATE) was “inactive; negative” and the mutagenic call [1] was “active; positive”. The mutagenic call [3] was “active; positive”, the mutagenic call [4] was “active; positive” and the mutagenic call (Test System: AMES SALMONELLA TYPHIMURIUM, Strain/Indicator: TA104, Metabolic Activation: NONE, Method: STANDARD PLATE) was “inactive; negative”. For the same molecule, the mutagenic call (Test System: AMES SALMONELLA TYPHIMURIUM, Strain/Indicator: TA1538, Metabolic Activation: NONE, Method: STANDARD PLATE) was “active; positive”, the mutagenic call (Test System: AMES SALMONELLA TYPHIMURIUM, Strain/Indicator: TA2637, Metabolic Activation: NONE, Method: STANDARD PLATE) was “active; positive” and the mutagenic call (Test System: CHINESE HAMSTER V-79, Strain/Indicator: V-79/6-THIOGUANINE, Metabolic Activation: NONE, Method: SUSPENSION/PLATE) was “active; positive”. For the same molecule, the mutagenic call (Test System: CHINESE HAMSTER V-79, Strain/Indicator: V-79/6-THIOGUANINE, Metabolic Activation: RAT, LIVER, HOMOGENATE, Method: SUSPENSION/PLATE) was “inactive; negative” and the mutagenic call (Test System: UDS RAT HEPATOCYTES, Strain/Indicator: THY INCORP, Metabolic Activation: NONE, Method: AUTOMATIC COLONY COUNTER) was “active; positive”.
